Data set [1] concerns the target T1, Recombinant human cathepsin K (Homo sapiens, UniProt P43235).
T1 construct: processed to the mature form and purified as described previously; made in house; host or cells: Pichia pastoris
T1 sequence (P43235 115-329): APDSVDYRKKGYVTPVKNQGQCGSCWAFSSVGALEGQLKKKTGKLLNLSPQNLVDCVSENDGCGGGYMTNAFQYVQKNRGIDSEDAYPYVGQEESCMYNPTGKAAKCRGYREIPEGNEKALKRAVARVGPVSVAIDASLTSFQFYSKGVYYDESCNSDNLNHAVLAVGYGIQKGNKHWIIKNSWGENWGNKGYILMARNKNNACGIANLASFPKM
Kind of data set: Digestion of human Col II with cathepsin K, C2K neoepitope by inhibition ELISA. As to conditions: pH 7.0, 2 μmol/L cathepsin K, peak at 48 hours, versus absence of chondroitin sulfate (FIG. 4). In kind it is biochemical. The protocol: Immulon™ 2 plates (VWR International, Montreal, Canada) were coated with the peptide-ovalbumin conjugate (prepared as described above for the hemocyanin conjugate) diluted in phosphate-buffered saline (PBS), pH 7.2, at 3 ng/well (50 μl/well), the optimum concentration as determined by checkerboard analyses. After overnight incubation at 4° C., the plate was washed three times with PBS-0.1% Tween™ 20 and blocked with 100 μl of PBS-1% bovine serum albumin (BSA), at room temperature for 30 minutes. Serial dilutions of the standard peptide containing the epitope that had been used for immunization were prepared and added at 50 μl/well in triplicate to round bottom polypropylene plates used as preincubation plates; the antiserum was diluted 1:12,000 (optimum dilution as determined by checkerboard analyses) in PBS-1% BSA, 0.1% Tween 20, pH 7.2, and added to the plates (50 μl/well). In the nonspecific binding wells 50 μl of PBS-1% BSA and 50 μl of PBS-1% BSA, 0.1% Tween 20 were added; the maximum binding wells contained 50 μl of the diluted antiserum and 50 μl of PBS-1% BSA. After 1 hour incubation at 37° C., 50 μl of each preincubated well was transferred to the Immulon 2 flat-bottom, 96-well microtiter plates. The plates were incubated at 4° C. for 30 minutes and then washed three times with PBS-0.1% Tween 20. […] The optical density (405 nm) was read after 1 hour incubation. […]
In general terms: ELISA stands for enzyme-linked immunosorbent assay.

The test system of a further data set is antiserum R771. Kind of data set: Competitive inhibition ELISA for neoepitope specificity of the antiserum. In kind it is binding, rabbit. Particulars: for competition by / binding of the antibody to competing synthetic peptide: competitive inhibition ELISA, FIG. 1A and B. The protocol:
A direct enzyme-linked immunosorbent assay (ELISA) assay was used to determine the antibody titer. The antiserum with the highest titer was selected for use. Investigation of the neoepitope specificity of the antiserum was performed by competitive inhibition ELISA as described.^17 The percentage binding and percentage inhibition were calculated for each of the standard peptides and results were expressed on a molar basis.
Immulon™ 2 plates (VWR International, Montreal, Canada) were coated with the peptide-ovalbumin conjugate (prepared as described above for the hemocyanin conjugate) diluted in phosphate-buffered saline (PBS), pH 7.2, at 3 ng/well (50 μl/well), the optimum concentration as determined by checkerboard analyses. After overnight incubation at 4° C., the plate was washed three times with PBS-0.1% Tween™ 20 and blocked with 100 μl of PBS-1% bovine serum albumin (BSA), at room temperature for 30 minutes. Serial dilutions of the standard peptide containing the epitope that had been used for immunization were prepared and added at 50 μl/well in triplicate to round bottom polypropylene plates used as preincubation plates; the antiserum was diluted 1:12,000 (optimum dilution as determined by checkerboard analyses) in PBS-1% BSA, 0.1% Tween 20, pH 7.2, and added to the plates (50 μl/well). In the nonspecific binding wells 50 μl of PBS-1% BSA and 50 μl of PBS-1% BSA, 0.1% Tween 20 were added; the maximum binding wells contained 50 μl of the diluted antiserum and 50 μl of PBS-1% BSA. After 1 hour incubation at 37° C., 50 μl of each preincubated well was transferred to the Immulon 2 flat-bottom, 96-well microtiter plates. The plates were incubated at 4° C. for 30 minutes and then washed three times with PBS-0.1% Tween 20. Alkaline phosphatase-conjugated goat antirabbit IgG (Sigma, St. Louis, Mo.), diluted 1:1000 in PBS-1% BSA, 0.1% Tween 20 was then added to each well (50 μl/well). The plate was incubated for 1 hour at 37° C., washed three times with PBS-0.1% Tween 20, and once with distilled water. One 5 mg tablet of alkaline phosphatase substrate (Sigma) was dissolved in 10 ml of 8.9 mmol/L diethanolamine buffer, pH 9.8, and added to the plate (50 μl/well). The optical density (405 nm) was read after 1 hour incubation. The detection limit of the newly developed assay was 2.8 ng/ml and the coefficients of variation (% CV) of the intra-assays and inter-assays were <10%. The analytic recovery was 87.2 to 97.3% and the recovery rates for the serial dilution were 92 to 108%.

The target in another data set is T2, α-chymotrypsin (Bos taurus, UniProt P00766).
T2 construct: purchased Sigma
Description: Treatment of immunizing peptide with α-chymotrypsin. As to conditions: 50 ng/ml immunizing peptide solution. The protocol: The content of C2K and C2C neoepitopes in cartilage were determined by extraction with α-chymotrypsin (Sigma). This degrades denatured but not intact triple helical collagen, to solubilize the collagen neoepitopes that can then be assayed. Femoral condylar cartilages from 17 normal and 19 OA individuals were washed and digested with α-chymotrypsin, as previously described.^23 The digest was removed and stored at −20° C. until analyzed. To ensure that the cathepsin K-generated neoepitope is not cleaved by α-chymotrypsin, a separate digestion was first performed by treating a 50 ng/ml immunizing peptide solution with α-chymotrypsin as described above. […] The concentration of the neoepitope released from the cartilage in the α-chymotrypsin digests was expressed as pmol of neoepitope/mg wet wt of cartilage (based on the molecular weights of the two neoepitope sequences used as standards in the ELISA assays: 717.8 Da for the C2K neoepitope and 972 Da for C2C).

The target in data set [2] is antiserum R771 (rabbit polyclonal anti-C2K neoepitope antiserum). Description: competitive inhibition ELISA: free peptide against plate-bound peptide-ovalbumin conjugate, antiserum R771 at 1:12,000.

Non-standard residues stand in square brackets, D forms with d. No end group written: not given here. Hyp = O=C(O)[C@@H]1C[C@@H](O)CN1

On to chondroitin 4-sulfate [C4S], for which, in data set [1], the “amount of C2K neoepitope on addition to the digestion buffer” value is reported as “significantly increased”.

As to “CGEAGKPG [immunizing peptide, N-terminal cysteine added]”, in the data set on antiserum R771 (peptide alone as competitive antigen, antiserum R771 diluted 1:12,000, read-out: median inhibitory concentration (IC50) in ELISA inhibition assay), the IC50 came to 45 nM. Moreover, the “loss of epitope after α-chymotrypsin treatment” value on α-chymotrypsin is listed as “No loss of epitope”.

Take chondroitin 6-sulfate [C6S]: in data set [1], the “amount of C2K neoepitope on addition to the digestion buffer” value is recorded as “significantly increased”.

As for “peptide (iv): N-terminally truncated peptide, deletion of the G (CEAGKPG; listed as Homo sapiens)”, the “competition by / binding of the antibody to competing synthetic peptide” value (“competition by / binding of the antibody” for short) with antiserum R771 is recorded as “some affinity”.

In the case of “(vi): immunizing peptide with glutamic acid and alanine residues inverted (CGAEGKPG; listed as Homo sapiens)”, the “competition by / binding of the antibody” value with antiserum R771 is listed as “negligible binding”.

“peptide iii: sequence similar to the immunizing peptide, except for the proline residue that was 4-hydroxylated (CGEAGK[Hyp]G)”: the “competition by / binding of the antibody” value in the data set with antiserum R771 is “reduced affinity”.

Take “(i): one-residue truncation of the immunizing peptide at the C terminus (CGEAGKP; listed as Homo sapiens)”: in the data set on antiserum R771, the “competition by / binding of the antibody” value was “negligible”.

As for “(ii): one-residue extension of the immunizing peptide at the C terminus (CGEAGKPGK; listed as Homo sapiens)”, in the data set on antiserum R771, the “competition by / binding of the antibody” value is listed as “negligible”.

In the case of “(v): immunizing peptide with deletion of the alanine residue (CGEGKPG; listed as Homo sapiens)”, the “competition by / binding of the antibody” value with antiserum R771 was “negligible binding”.

In the case of CGEAGKPG, the IC50 in data set [2] turned out to be 45 nM.

The record behind these values is patent US20110281285A1, “Assay for Detecting Cathepsin K Activty in Bone, Cartilage and/or Soft Tissue” (priority 2009, published 2011).
